For one data set, the target named is recombinant CYP2D6 (Homo sapiens, UniProt P10635). Briefly: Vivid CYP2D6 Cyan screening kit. To be noted: 10 µM, positive control.
Data set [1] concerns MCF-7 cells. Put plainly: Annexin V/propidium iodide flow cytometry (apoptosis), MCF-7. The format is cell-based, human. To be noted: MCF-7, 20 µg/mL, 24 h. The source says: (§1) Flow cytometry analyses for apoptosis induction by the compounds 1–3 and etoposide wereperformedusing an FITC Annexin V Apoptosis Detection Kit II (BD Pharmingen, San Diego, CA, USA). The rationale of the assay is based on the externalization of phosphatidylserine on the surface of apoptotic cells. In early and late apoptotic cells, the phosphatidylserine translocates into the outer layer of the membrane, which allows annexin V-FITC to attach. Propidium iodide (PI) is, in turn, a fluorescent dye that penetrates into the late apoptotic and necrotic cells with impaired cell membrane integrity. Therefore, using annexin V and PI, it is possible to distinguish four groups of cells: living cells, early apoptotic cells, late apoptotic cells and necrotic cells. MCF-7 and MDA-MB-231 cells were incubated with 10 and 20 µg/mL of compounds 1–3 and etoposide (reference drug) for 24 h. After incubation, the cells were dyed with FITC-labeled annexin V and PI. The analysis was performed on a BD FACS Canto II flow cytometer using FACSDiva software (version 6.1.3, BD Biosciences Systems, San Diego, CA, USA). The equipment was calibrated with BD Cytometer Setup and Tracking Beads (BDBiosciences, San Diego, CA, USA).

Data set [2] deals with caspase-8 in MDA-MB-231 cells. Briefly: FLICA caspase-8 activity flow cytometry, MDA-MB-231. Format: cell-based, human. To be noted: MDA-MB-231, 20 µg/mL, 24 h. As for the experimental part: (§2) Caspase-8 and caspase-9 activitiesweremeasured using the FLICA Caspase-8 Assay Kit and FLICA Caspase-9 Assay Kit (ImmunoChemistry Technologies, Bloomington, MN, USA), respectively, according to the manufacturer’s protocol. In brief, MCF-7 and MDA-MB-231 breast cancer cells (1 × 10^6) were washed with cold PBS twice and re-suspended in buffer. Then, 5 μL of diluted FLICA reagent and 2 μL of Hoechst 33,342 were added to 93 μL of cell suspension, mixed by pipetting and incubated for 60 min at 37 °C. After incubation, the cells were washed twice with 400 μL of apoptosis wash buffer and centrifuged at 300× g. After the last wash, the cells were resuspended in 100 μL of apoptosis wash buffer supplemented with 10 μg/mL of PI. Analyses were performed using aBD FACSCanto II flow cytometer, and the results were analyzed with FACSDiva software (version 6.1.3, BD BiosciencesSystems, San Diego, CA, USA). To identify the involvement of caspases in apoptosis induced by compounds 1–3, the investigated breast cancer cells were pretreated with the pan-caspase inhibitor, Z-VAD-FMK (100 µM) (Sigma Aldrich, St. Louis, MO, USA), as described in [28]. The activation of caspases-8 and -9 was detected as described above.
Background: In flow cytometry, cells or beads pass a laser one at a time.

Data set [3] has as its system MDA-MB-231 cells. Put plainly: Annexin V/propidium iodide flow cytometry (apoptosis), MDA-MB-231. The format is cell-based, human. Conditions: MDA-MB-231, 20 µg/mL, 24 h.
Source text: as §1

The subject of another data set is caspase-8 in MCF-7 cells. Briefly: FLICA caspase-8 activity flow cytometry, MCF-7. The format is cell-based, human. To be noted: MCF-7, 20 µg/mL, 24 h. How it is done:
as §2

The subject of data set [4] is MCF-7 cells. Briefly: Autophagy Assay (Red kit) flow cytometry, MCF-7. Format: cell-based, human. To be noted: 24 h. As for the experimental part: (§3) In order to evaluate the number of autophagosomes and autolysosomes in breast cancer cells incubated with the investigated compounds, anAutophagy Assay (Red kit) was performed (ImmunoChemistry Technologies, Bloomington, MN, USA). In short, the unfixed cells were washed and resuspended in PBS with the added autophagy probe, Red solution. Next, the cells were incubated for 30 min at 37 °C in the dark, washed, resuspended in cellular assay buffer and the provided fixative was added at a volume/volume ratio of 1:5. The samples were measured immediately after preparation by flow cytometry using the BD FACSCanto II system (BD Biosciences Systems, San Diego, CA, USA). The percentage of cells with autophagy was calculated using FACSDiva software (version 6.1.3, BD Biosciences Systems, San Diego, CA, USA).

For data set [5], the system named is MDA-MB-231 cells. Briefly: Autophagy Assay (Red kit) flow cytometry, MDA-MB-231. To be noted: 24 h. The format is cell-based, human. As for the experimental part:
as §3

Data set [6] addresses T1, MDR1 (p-glycoprotein) in MDA-MB-231 cells (Homo sapiens, UniProt P08183).
T1 construct: endogenous in cells; host or cells: MCF-7 and MDA-MB-231 cells
Put plainly: MDR transporter activity assay, MDR1 in MDA-MB-231. The format is cell-based. To be noted: MDA-MB-231, 20 µg/mL, 24 h. How it is done:
An MDR Assay kit (Abcam, Cambridge, UK) was used following the manufacturer’s instructions. MCF-7 and MDA-MB-231 cells were incubated with compounds 1–3 (10 μg/mL and 20 μg/mL). After 24 h of incubation, the test cells were washed twice with 5 mL of PBS by centrifugation at 1200 rpm for 10 min. The supernatants were discarded and the cells were counted using a Scepter 3.0 handheld automated cell counter (Milipore, Burlington, MA, USA). Then, each of the tested samples was divided into three parts and analyzed. Tomeasure the activity of MDR1, MRP1 and BCRP (tubes 1–12), 5 μL of verapamil (MDR1 inhibitor) was added into tubes 1–3, 5 μL of MK-571 (MRP1 inhibitor) was added into tubes 4–6, 5 μL of noviobiocin (BCRP inhibitor) was added into tubes 7–9 and 125 μL DMEM with 1 μL of DMSO was added into tubes 10–12. Then, the samples were incubated at 37 °C for five minutes. After this time, 125 μL of Efflux Green Detection Reagent was added into tubes 1–12 and the samples were incubated for 30 min at 37 °C. After 25 min of incubation, 5 μL of PI was added to each tube. Thereafter, the samples were centrifuged for 10 min at 1200 rpm. The supernatants were discarded and the cells were resuspended in 500 μL of PBS and run on the flow cytometer immediately. Measurements were conducted on a BD FACSCanto II flow cytometer using FACSDiva software (version 6.1.3, BD Biosciences, San Diego, CA, USA). […] The calculations followed these formulas:MAFMDR1= 100 × (FMDR1 − F0)/FMDR1 MAFMRP= 100 × (FMRP − F0)/FMRP MAFBCRP= 100 × (FBCRP − F0)/FBCRP
• FMDR—MFI with MDR1 inhibitor (verapamil) • FMRP—MFI with MRP inhibitor (MK-571) • FBCRP—MFI with BCRP inhibitor (novobiocin) • F0—MFI without inhibitor
The theoretical range of the MAF values is between 0 and 100.

Another data set has as its system MCF-10A cells. Put plainly: MTT viability assay, normal breast epithelial cells. Format: cell-based, human. How it is done:
Human breast cancer cells, i.e., MCF-7 (estrogen-dependent breast cancer cells) and MDA-MB-231 (estrogen-independent breast cancer cells), as well as normal human breast epithelial cells (MCF-10A) were purchased from the American Type Culture Collection (ATCC, Manassas, VA, USA). MCF-7 and MDA-MB-231 cells were cultured in DMEM (Sigma Aldrich, St. Louis, MO, USA) supplemented with 10% fetal bovine serum (FBS), penicillin (100 U/mL) and streptomycin (100 μg/mL). MCF-10A cells were cultured in Mammary Epithelial Cell Growth Medium supplemented with BPE, hEGF, insulin, hydrocortisone, GA-1000 (Lonza, Basel, Switzerland), 10% fetal bovine serum (FBS), penicillin (100 U/mL) and streptomycin (100 μg/mL). The cells were grown in T25 Cell Culture EasyFlask (Nunc, Roskilde, Denmark) at 37 °C in a humidified atmosphere of 5% CO2.
MTT assays were performed to evaluate the cytotoxic activity of the investigated compounds (1–3) against MCF-10A cells. Asuspension of cells (1 × 10^5 cells/mL) was distributed onto 96-well plates at a volume of 100 μL/well. After attachment, the cells were treated with increased concentrations of the tested compounds in medium containing 2% FBS, and incubated for 24 h. Then, 15 μL of MTT working solution (5 mg/mL in PBS) was added to each well and the plates were incubated for 3 h. Subsequently, 100 μL of 10% SDS solution was added to each well in order to dissolve the formazan formed. After overnight incubation at 37 °C, the absorbance of the obtained solution was measured at λ= 570 nm using a microplate reader (Epoch, BioTek Instruments, Inc., Winooski, VT, USA). At least two independent experiments were performed in triplicate. IC50 values of the tested compounds were calculated using the IC50 online calculator [27].
(In general: Formazan colour is commonly taken as a measure of viable cells.)

The subject of data set [7] is MCF-7 cells. Put plainly: Cell cycle analysis (PI flow cytometry), MCF-7. Format: cell-based, human. Conditions: MCF-7, 20 µg/mL, 24 h. As for the experimental part:
Cell cycle analyses of MCF-7 and MDA-MB-231 cells treated with compounds 1–3 and etoposide for 24 h were performed using a FACSCanto II flow cytometer (BD Bioscences Systems, San Diego, CA, USA). After incubation, breast cancer cells were trypsinized and fixed with cold ethanol (70%) and stored overnight at −20 °C. After removing ethanol, the cells were washed three times with PBS, treated with 50 μg/mL of DNase-free RNase A Solution (Promega, Madison, WI, USA) and stained with 100 μg/mL of PI. The results of measurements were analyzed using FCS Express 7 software (De Novo Software, Pasadena, CA, USA).

Data set [8] deals with MCF-7 cells. Also on record: method as in PMID 36345785. Conditions: BrdU assay; cited from earlier work.
Data set [9] deals with MCF-7 cells. Also on record: method as in PMID 36345785. To be noted: MTT; cited from earlier work.
Data set [10] concerns MDA-MB-231 cells. Also on record: method as in PMID 36345785. Conditions: MTT; cited from earlier work.

Values after ≈ are worked out from the molar mass of the structure shown. Values joined by “and” are separate entries in the source; they are usually repeats but may differ in a detail not shown here. Identical values can stand only once. A value given as a limit tells only on which side of the number the result lay.

T1 sequence (P08183 whole entry): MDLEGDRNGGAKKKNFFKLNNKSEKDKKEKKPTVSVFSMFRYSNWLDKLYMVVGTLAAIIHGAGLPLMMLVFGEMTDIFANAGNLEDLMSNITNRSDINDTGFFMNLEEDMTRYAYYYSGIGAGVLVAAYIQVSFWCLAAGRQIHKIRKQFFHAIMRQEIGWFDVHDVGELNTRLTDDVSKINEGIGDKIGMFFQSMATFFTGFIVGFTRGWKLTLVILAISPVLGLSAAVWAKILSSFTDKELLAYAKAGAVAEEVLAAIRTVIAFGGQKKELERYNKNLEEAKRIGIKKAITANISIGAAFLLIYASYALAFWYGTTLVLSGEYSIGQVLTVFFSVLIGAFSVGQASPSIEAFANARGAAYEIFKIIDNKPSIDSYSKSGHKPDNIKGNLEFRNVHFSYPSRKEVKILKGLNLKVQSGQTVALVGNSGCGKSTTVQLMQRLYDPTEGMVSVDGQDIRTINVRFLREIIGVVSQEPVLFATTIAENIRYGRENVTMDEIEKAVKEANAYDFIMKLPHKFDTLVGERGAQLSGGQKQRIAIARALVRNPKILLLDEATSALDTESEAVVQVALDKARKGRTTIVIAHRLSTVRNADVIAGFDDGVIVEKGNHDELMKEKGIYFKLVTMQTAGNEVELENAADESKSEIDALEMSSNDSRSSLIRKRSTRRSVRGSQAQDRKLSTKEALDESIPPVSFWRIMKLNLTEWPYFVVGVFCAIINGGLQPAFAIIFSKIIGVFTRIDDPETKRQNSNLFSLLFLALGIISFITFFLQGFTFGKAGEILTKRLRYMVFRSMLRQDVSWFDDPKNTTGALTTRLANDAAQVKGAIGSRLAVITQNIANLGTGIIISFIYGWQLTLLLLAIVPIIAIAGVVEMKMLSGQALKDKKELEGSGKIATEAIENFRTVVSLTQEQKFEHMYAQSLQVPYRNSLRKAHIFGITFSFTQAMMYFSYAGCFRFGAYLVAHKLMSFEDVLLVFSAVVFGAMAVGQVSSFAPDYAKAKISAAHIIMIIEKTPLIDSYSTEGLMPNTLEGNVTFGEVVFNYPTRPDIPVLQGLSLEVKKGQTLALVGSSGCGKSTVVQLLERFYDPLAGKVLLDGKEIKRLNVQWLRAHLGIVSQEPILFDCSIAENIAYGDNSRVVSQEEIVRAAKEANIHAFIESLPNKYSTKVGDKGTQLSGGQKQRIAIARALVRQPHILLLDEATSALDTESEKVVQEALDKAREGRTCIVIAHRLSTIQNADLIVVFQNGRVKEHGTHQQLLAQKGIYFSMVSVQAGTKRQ
recombinant CYP2D6, sequence (P10635 whole entry): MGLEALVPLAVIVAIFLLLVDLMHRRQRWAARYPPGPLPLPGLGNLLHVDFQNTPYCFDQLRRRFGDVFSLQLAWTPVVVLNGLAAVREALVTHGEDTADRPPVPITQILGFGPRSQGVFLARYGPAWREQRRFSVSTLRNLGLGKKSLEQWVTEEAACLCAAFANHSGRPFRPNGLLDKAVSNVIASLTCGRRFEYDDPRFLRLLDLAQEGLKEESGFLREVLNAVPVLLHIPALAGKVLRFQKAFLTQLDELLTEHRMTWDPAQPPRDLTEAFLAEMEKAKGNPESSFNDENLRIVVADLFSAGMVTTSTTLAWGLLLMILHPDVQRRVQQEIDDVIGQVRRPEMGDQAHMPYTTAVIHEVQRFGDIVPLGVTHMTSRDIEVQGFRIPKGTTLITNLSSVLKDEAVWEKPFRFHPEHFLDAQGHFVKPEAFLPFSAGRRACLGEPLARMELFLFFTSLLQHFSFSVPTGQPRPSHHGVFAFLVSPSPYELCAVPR
Experimental for recombinant CYP2D6: According to these assays, the examined compounds are analyzed by their ability to inhibit the production of a fluorescent signal in the reaction between recombinant CYP3A4 or CYP2D6 isozymes and specific Vivid substrates. The experiments were performed in the endpoint mode of the assay, in which solutions of examined compounds were first combined with the Master Pre-mix. After a short incubation, the background fluorescence of the Master Pre-mix and the examined compounds was measured. Next, a mix of the respective Vivid substrate and NADP^+ was added in order to initiate the enzymatic reaction. After 20 min of incubation, the reaction was terminated using a stop solution and the fluorescence was measured using the recommended (by the manufacturer) excitation and emission wavelengths. […] A reaction mixture without tested compounds was used as a negative control and its fluorescence was designated as 100%. The experiments were run in triplicate and the results were presented as means ± SD.

For `C=C[C@H]1C[N@@]2CC[C@H]1C[C@@H]2[C@@H](O)c1ccnc2ccc(OC)cc12` [guanidine], at recombinant CYP2D6, the “CYP2D6 activity vs. negative control” value is listed as 11.08 ± 0.81%.
Turning to `COc1cc([C@@H]2c3cc4c(cc3[C@@H](O[C@@H]3O[C@@H]5CO[C@@H](C)O[C@H]5[C@H](O)[C@H]3O)[C@H]3COC(=O)[C@H]23)OCO4)cc(OC)c1O` [etoposide, reference compound], the “apoptotic cells (sum of early and late apoptotic cells)” value with MCF-7 cells [1] and with MDA-MB-231 cells [3] was “about 8.5%” each time. The entries for the “cells with activated caspase-8” value (in [2]; with caspase-8 in MCF-7 cells) were 7.2% and 6.73%, respectively. The “cell population forming autophagosomes and/or autolysosomes” value in the data set with MCF-7 cells [4] (MCF-7, etoposide-treated, concentration not specified) is “about 1%”; in the data set on MDA-MB-231 cells [5] (MDA-MB-231, etoposide-treated, concentration not specified), “about 1%”.
Take `CC(C)c1cccc(C(C)C)c1NC(=S)NNC(=O)Cc1cccc2ccccc12` [Compound 1]: the “MAF MDR1” value in data set [6] was under 20. The IC50 is 25.3 µg/mL and 60.3 µM with MCF-10A cells (Homo sapiens, MCF-10A, MTT, 24 h); 23.4 ± 1.12 µM with MCF-7 cells [9]; 21.9 ± 0.5 µM in the data set on MDA-MB-231 cells [10]. The “SIMCF-7 (selectivity index)” value in the data set on MCF-10A cells (IC50 MCF-10A/IC50 MCF-7) is 2.57. For the same molecule, the “SIMDA-MB-231 (selectivity index)” value in the data set with MCF-10A cells (IC50 MCF-10A/IC50 MDA-MB-231) is on record as 2.75. Further, the “cells in G2/M phase” value with MCF-7 cells [7] is listed as 33.6%. In addition, the “cells in S phase” value with MCF-7 cells [7] is recorded as 35.9%. In addition, the cells undergoing autophagy with MCF-7 cells [4] (MCF-7, 10 µg/mL) is listed as 2.5 ± 0.2%; in the data set on MCF-7 cells [4] (MCF-7, 20 µg/mL), 11.5 ± 1.2%; in the data set with MDA-MB-231 cells [5] (MDA-MB-231, 10 µg/mL (lower end of printed range)), 3.0 ± 0.2%; in the data set with MDA-MB-231 cells [5] (MDA-MB-231, 20 µg/mL (upper end of printed range)), 5.5 ± 0.9%. The “antiproliferative activity, times stronger than etoposide” value in the data set with MCF-7 cells [8] is 46 times. In addition, in the data set with MCF-7 cells [8], the “selectivity index (SI), cancer vs normal (non-cancerous) cells” value is on record as 46.8. In addition, the “IC50 MCF-7” value in the data set on MCF-7 cells [9] is 9.82 ± 0.47 µg/mL (≈ 23.4 µM). Besides, in the data set with MDA-MB-231 cells [10], the “IC50 MDA-MB-231” value is on record as 9.21 ± 0.21 µg/mL (≈ 21.9 µM).

Usually IC50 stands for the concentration needed to halve the response being measured.
